Data: patent US20150105252A1, “SUBSTITUTED PYRAZOLES AS HERBICIDES” (E I DU PONT DE NEMOURS AND COMPANY, priority 2013, published 2015)

Tests used:
rice = assay: Test B flood; type: in vivo, Oryza sativa; conditions: 250 g ai/ha, visual rating on 0 to 100 scale (0 no effect, 100 complete control), 13 to 15 days
In short: (§1)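 Plants were grown to the 2-leaf stage and pots flooded to 3 cm above soil. Compounds were applied directly into the paddy water, with depth kept for the test. After 13–15 days in greenhouse, response was rated visually against controls on a 0 (no effect) to 100 (complete control) scale.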

barnyardgrass = assay: Test B flood; type: in vivo, Echinochloa crus-galli; conditions: 250 g ai/ha, visual rating on 0 to 100 scale (0 no effect, 100 complete control), 13 to 15 days
In short: as §1

nutsedge, yellow [1] = assay: Test C preemergence; type: in vivo, Cyperus esculentus
In short: (§2)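 Seeds sown in loam–sand blend and treated preemergence with test chemicals in non-phytotoxic solvent with surfactant; postemergence plants in peat-based medium, treated at 2–18 cm (1- to 4-leaf stage). Greenhouse 13 to 15 days, then visual rating versus controls, 0 (no effect) to 100 (complete control).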

ryegrass, Italian = assay: Test C postemergence; type: in vivo, Lolium multiflorum
In short: as §2

foxtail, giant = assay: Test C postemergence; type: in vivo, Setaria faberii
In short: as §2

johnsongrass = assay: Test C postemergence; type: in vivo, Sorghum halepense; conditions: for Plant response rating, Johnsongrass: postemergence
In short: as §2

nutsedge, yellow [2] = assay: Test C postemergence; type: in vivo, Cyperus esculentus
In short: as §2

pigweed = assay: Test C postemergence; type: in vivo, Amaranthus retroflexus
In short: as §2

oat, wild = assay: Test C postemergence; type: in vivo, Avena fatua
In short: as §2

blackgrass = assay: Test C preemergence; type: in vivo, Alopecurus myosuroides
In short: as §2

wheat = assay: Test C preemergence; type: in vivo, Triticum aestivum
In short: as §2

lambsquarters = assay: Test C preemergence; type: in vivo, Chenopodium album
In short: as §2

[3] = preemergence, 62 g ai/ha, scale 0 to 100 (0 no effect, 100 complete control), 13 to 15 days
[4] = Postemergence, 31 g ai/ha, visually evaluated after 13 to 15 days
[5] = postemergence, 62 g ai/ha, scale 0 to 100
[6] = postemergence, 250 g ai/ha, scale 0 to 100 (0 no effect, 100 complete control)
[7] = postemergence, 125 g ai/ha, scale 0 to 100, 0 no effect, 100 complete control
[8] = preemergence, 31 g ai/ha, visual rating, scale 0 to 100 (0 no effect, 100 complete control), 13 to 15 days
[9] = preemergence, 125 g ai/ha, 13 to 15 days, scale 0 to 100, 0 = no effect, 100 = complete control
[10] = preemergence, 250 g ai/ha, scale 0 to 100, 0 is no effect, 100 is complete control
[11] = Preemergence, 4 g ai/ha, scale 0 to 100
[12] = Preemergence, 8 g ai/ha, scale 0 to 100
[13] = Preemergence, 16 g ai/ha, scale 0 to 100

Structure (SMILES): CCc1cc(-c2ccc(C(F)(F)F)cc2)nn1Cc1ccnc(C(F)(F)F)c1 [Compound 110]
- Plant response rating, Rice (rice): 35
- Plant response rating, Barnyardgrass (barnyardgrass): 30
- Plant response rating (scale of 0 to 100), Nutsedge, Yellow (nutsedge, yellow [1]; Preemergence, 250 g ai/ha): 5
- Nutsedge, Yellow plant response rating (nutsedge, yellow [1]; [3]): 5
- Nutsedge, Yellow plant response rating (nutsedge, yellow [1]; preemergence, 125 g ai/ha, scale 0 to 100, 0 is no effect, 100 is complete control): 5
- Plant response rating (scale of 0 to 100 where 0 is no effect and 100 is complete control), Ryegrass, Italian (ryegrass, Italian; [4]): 20
- Ryegrass, Italian plant response rating (ryegrass, Italian; [5]): 20
- Plant response rating, Ryegrass, Italian (ryegrass, Italian; [6]): 40
- Plant response rating, Ryegrass, Italian (ryegrass, Italian; [7]): 35
- Plant response rating (scale of 0 to 100 where 0 is no effect and 100 is complete control), Foxtail, Giant (foxtail, giant; [4]): 35
- Foxtail, Giant plant response rating (foxtail, giant; [5]): 40
- Plant response rating, Foxtail, Giant (foxtail, giant; [6]): 70
- Plant response rating, Foxtail, Giant (foxtail, giant; [7]): 60
- Plant response rating (scale of 0 to 100 where 0 is no effect and 100 is complete control), Johnsongrass (johnsongrass; [4]): 40
- Plant response rating, Johnsongrass (johnsongrass; 250 g ai/ha, scale 0 to 100 (0 no effect, 100 complete control)): 90
- Plant response rating, Johnsongrass (johnsongrass; 125 g ai/ha, scale 0 to 100, 0 no effect, 100 complete control): 75
- Plant response rating (scale of 0 to 100 where 0 is no effect and 100 is complete control), Nutsedge, Yellow (nutsedge, yellow [2]; [4]): 5
- Nutsedge, Yellow plant response rating (nutsedge, yellow [2]; [5]): 10
- Plant response rating, Nutsedge, Yellow (nutsedge, yellow [2]; [6]): 10
- Plant response rating, Nutsedge, Yellow (nutsedge, yellow [2]; [7]): 10
- Plant response rating (scale of 0 to 100 where 0 is no effect and 100 is complete control), Pigweed (pigweed; [4]): 85
- Pigweed plant response rating (pigweed; [5]): 85
- Plant response rating, Pigweed (pigweed; [6]): 98
- Plant response rating, Pigweed (pigweed; [7]): 90
- Plant response rating (scale of 0 to 100 where 0 is no effect and 100 is complete control), Oat, Wild (oat, wild; [4]): 5
- Oat, Wild plant response rating (oat, wild; [5]): 25
- Plant response rating, Oat, Wild (oat, wild; [6]): 35
- Plant response rating, Oat, Wild (oat, wild; [7]): 30

Structure (SMILES): O=C(NCC(F)(F)F)c1cc(CCF)n(Cc2ccnc(C(F)(F)F)c2)n1 [Compound 175]
- Plant response rating, Rice (rice): 25
- Plant response rating, Barnyardgrass (barnyardgrass): 35
- Blackgrass plant response rating (blackgrass; [8]): 30
- Blackgrass plant response rating (blackgrass; [3]): 90
- Plant response rating, Blackgrass (blackgrass; [9]): 90
- Blackgrass plant response rating (blackgrass; [10]): 90
- Wheat plant response rating (wheat; [8]): 0
- Wheat plant response rating (wheat; [3]): 50
- Plant response rating, Wheat (wheat; [9]): 85
- Wheat plant response rating (wheat; [10]): 90
- Lambsquarters plant response rating (lambsquarters; [8]): 98
- Lambsquarters plant response rating (lambsquarters; [3]): 100
- Plant response rating, Lambsquarters (lambsquarters; [9]): 100
- Lambsquarters plant response rating (lambsquarters; [10]): 100
- Nutsedge, Yellow plant response rating (nutsedge, yellow [1]; [8]): 10
- Nutsedge, Yellow plant response rating (nutsedge, yellow [1]; [3]): 55
- Plant response rating, Nutsedge, Yellow (nutsedge, yellow [1]; [9]): 70
- Nutsedge, Yellow plant response rating (nutsedge, yellow [1]; [10]): 98

Structure (SMILES): CCOc1cc(C(=O)NCC(F)(F)F)nn1Cc1cc(C(F)(F)F)nn1C [Compound 140]
- Plant response rating, Rice (rice): 40
- Plant response rating, Barnyardgrass (barnyardgrass): 55
- Plant response rating, Blackgrass (blackgrass; [11]): 0
- Plant response rating, Blackgrass (blackgrass; [12]): 0
- Plant response rating, Blackgrass (blackgrass; [13]): 5
- Blackgrass plant response rating (blackgrass; [8]): 50
- Plant response rating, Wheat (wheat; [11]): 0
- Plant response rating, Wheat (wheat; [12]): 0
- Plant response rating, Wheat (wheat; [13]): 0
- Wheat plant response rating (wheat; [8]): 35
- Plant response rating, Lambsquarters (lambsquarters; [11]): 5
- Plant response rating, Lambsquarters (lambsquarters; [12]): 55
- Plant response rating, Lambsquarters (lambsquarters; [13]): 40
- Lambsquarters plant response rating (lambsquarters; [8]): 75
- Plant response rating, Nutsedge, Yellow (nutsedge, yellow [1]; [11]): 0
- Plant response rating, Nutsedge, Yellow (nutsedge, yellow [1]; [12]): 15
- Plant response rating, Nutsedge, Yellow (nutsedge, yellow [1]; [13]): 0
- Nutsedge, Yellow plant response rating (nutsedge, yellow [1]; [8]): 15

Structure (SMILES): CCNC(=O)c1cc(CCF)n(Cc2ccnc(C(F)(F)F)c2)n1 [Compound 178]
- Plant response rating, Rice (rice): 0
- Plant response rating, Barnyardgrass (barnyardgrass): 20
- Plant response rating, Blackgrass (blackgrass; [13]): 0
- Blackgrass plant response rating (blackgrass; [8]): 5
- Blackgrass plant response rating (blackgrass; [3]): 30
- Plant response rating, Blackgrass (blackgrass; [9]): 85
- Plant response rating, Wheat (wheat; [13]): 0
- Wheat plant response rating (wheat; [8]): 0
- Wheat plant response rating (wheat; [3]): 0
- Plant response rating, Wheat (wheat; [9]): 0
- Plant response rating, Lambsquarters (lambsquarters; [13]): 65
- Lambsquarters plant response rating (lambsquarters; [8]): 80
- Lambsquarters plant response rating (lambsquarters; [3]): 100
- Plant response rating, Lambsquarters (lambsquarters; [9]): 100
- Plant response rating, Nutsedge, Yellow (nutsedge, yellow [1]; [13]): 0
- Nutsedge, Yellow plant response rating (nutsedge, yellow [1]; [8]): 5
- Nutsedge, Yellow plant response rating (nutsedge, yellow [1]; [3]): 15
- Plant response rating, Nutsedge, Yellow (nutsedge, yellow [1]; [9]): 35

Structure (SMILES): O=C(NC1CC1)c1cc(CCF)n(Cc2ccnc(C(F)(F)F)c2)n1 [Compound 176]
- Plant response rating, Rice (rice): 0
- Plant response rating, Barnyardgrass (barnyardgrass): 35
- Blackgrass plant response rating (blackgrass; [8]): 5
- Blackgrass plant response rating (blackgrass; [3]): 5
- Plant response rating, Blackgrass (blackgrass; [9]): 90
- Blackgrass plant response rating (blackgrass; [10]): 90
- Wheat plant response rating (wheat; [8]): 0
- Wheat plant response rating (wheat; [3]): 0
- Plant response rating, Wheat (wheat; [9]): 5
- Wheat plant response rating (wheat; [10]): 85
- Lambsquarters plant response rating (lambsquarters; [8]): 80
- Lambsquarters plant response rating (lambsquarters; [3]): 98
- Plant response rating, Lambsquarters (lambsquarters; [9]): 100
- Lambsquarters plant response rating (lambsquarters; [10]): 100
- Nutsedge, Yellow plant response rating (nutsedge, yellow [1]; [8]): 5
- Nutsedge, Yellow plant response rating (nutsedge, yellow [1]; [3]): 5
- Plant response rating, Nutsedge, Yellow (nutsedge, yellow [1]; [9]): 75
- Nutsedge, Yellow plant response rating (nutsedge, yellow [1]; [10]): 85
